Results taken from patent US11427615B2, “Peptide compound and application thereof, and composition containing peptide compound” (XDCEXPLORER (SHANGHAI) CO., LTD., priority 2017, dated 2022).
Non-standard residues stand in square brackets, D forms with d. Residues, ends and D or L forms follow the SMILES beside them. *: point of attachment. X1 = CCCCCCCCCCCC(=O)NCCOCCOCCOCCOCCOCCSC1CC(=O)N(CCCC(=O)*)C1=O; X2 = CCCCCCCCCCCC(=O)NCCOCCOCCOCCOCCOCCn1cc(CC(=O)*)nn1; dPhe(2,4-Cl2) = N[C@H](Cc1ccc(Cl)cc1Cl)C(=O)O; Pro(4,4-F2) = O=C(O)[C@@H]1CC(F)(F)CN1; Arg(Me) = CNC(=N)NCCC[C@H](N)C(=O)O; Hyp = O=C(O)[C@@H]1C[C@@H](O)CN1; AllylGly = C=CC[C@H](N)C(=O)O; Cba = N[C@@H](CC1CCC1)C(=O)O; Ac6c = NC1(C(=O)O)CCCCC1; azaGly = NNC(=O)O; βAla = NCCC(=O)O

Target: T1, human kiss1 receptor (GPR54) (Homo sapiens, UniProt Q969F8)
T1 construct: host or cells: NFAT-bla CHO-K1 cells (Chinese hamster ovary), purchased recombinant cell line
T1 sequence (Q969F8 whole entry): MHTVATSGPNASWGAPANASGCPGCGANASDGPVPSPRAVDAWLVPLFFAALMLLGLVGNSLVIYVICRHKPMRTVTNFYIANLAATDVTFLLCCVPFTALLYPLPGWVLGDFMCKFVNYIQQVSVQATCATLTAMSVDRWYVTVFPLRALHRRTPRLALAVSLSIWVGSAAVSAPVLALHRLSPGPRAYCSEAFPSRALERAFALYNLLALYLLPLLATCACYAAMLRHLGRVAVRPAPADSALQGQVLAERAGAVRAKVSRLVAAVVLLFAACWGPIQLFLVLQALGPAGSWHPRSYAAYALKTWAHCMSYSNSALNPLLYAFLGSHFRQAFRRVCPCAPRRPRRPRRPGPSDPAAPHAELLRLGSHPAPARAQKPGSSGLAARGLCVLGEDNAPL
Test: Kiss1 receptor (GPR54) binding activity of agonists, FRET detection in NFAT-bla CHO-K1 cells
Format: cell-based
Conditions: human kiss1 receptor (GPR54), NFAT-bla CHO-K1 cells, FRET; preliminary data; method of effect Embodiment 1; read-out: Preliminary measurement data (GPR54) EC50
Protocol: Effect Embodiment 1 Determination of Kiss1 Receptor (GPR54) Binding Activity of Kiss1 Receptor (GPR54) Agonist
The binding activity test of each compound from the above the embodiments with kiss1 receptor (GPR54) was performed by fluorescence energy resonance transfer (FRET) detection technology to detect EC50 values of polypeptides and peptide analogs. The cells used in this experiment were NFAT-bla CHO-K1 cells (k1720, invitrogen, thermosher) that express human kiss1 receptor (GPR54). The specific operations were as follows:
Day 1: Seeding Cells in Plate
1. Microscope (CKX41, OLYMPUS), object lens×4 times, ocular lens×10 times. The cells were ensured in a good condition.
2. Digesting the cells, adding 3 ml of 0.05% pancreatin into a culture dish; cells were placed in a 37° C., 5% CO2 incubator for 2 minutes (Thermo Fisher). After the cells became round under the microscope, 7 ml of culture medium was added. The formula of culture medium was as follows: DMEM 90%, dialzedfbS10, NEAA 0.1 mM, HEPES 25 mM, Penicillin 100 U/ml, Streptomycin 100 μm/ml, pH7.3. After blowing and stirring, it was transferred to 15 mL centrifuge tube (430790, Corning). Centrifuge at 1000 rpm for 5 min (5810R, Eppendorf) and the supernatant was discard.
3. Adding 7 mL of culture medium (DMEM+0.1% BSA), it was pipetting into single cell suspension, after counting with Bio-RAD counter, the cell density was adjusted to 312,500 cells/ml.
4. Cells were inoculated into 384 well plates at 32 μL per well, and the cell number was controlled at 10000 cells/well. 32 μl of culture medium was added into the blank control.
Day 2: Dosing and Data Analysis
1) The compound to be tested was prepared into 50 mM working solution with DMSO.
2) 40 μl of the working solution of the compound to be tested was added into column 2 of row A-H of U-shaped 96-well plate (3797, comings), and 60 μl of DMSO was added into column 3-11. 20 μl of compound solution was sucked from the second column to the third column with a multichannel pipette blowing and stirring evenly; 20 μl of compound solution was absorbed from the third column with a multichannel pipette, then added into the fourth column, blowed and stirred to mix well; the compound was serially diluted 4-fold to a total of 10 concentrations. Column 1 and column 12 of 96-well plates were supplemented with 40 μl DMSO.
2. Intermediate Plate Configuration
1) AU-shaped 96-well plate was used, 199 μL of culture medium (DMEM+0.1% BSA) was added to each well, 1 μL of diluted compound (or DMSO) was sucked from 1000× compound plate and added into the 96-well plate at the corresponding position, blowed and stirred to mix well.
2) Homemade positive compounds and compounds to be tested were added. The cell culture plate was took out from the incubator and cells state was observed under microscope. Diluted compound in the intermediate plate or DMSO was added into the cell, 8 μl per well.
3) Cells were cultured in 37° C. and 5% CO2 for 4 hours.
3. The Substrate was Added to Detect the Binding of the Drug to the Receptor
1) 1 μmol/L CCF-4AM solution and buffer solution B, C, D were equilibrated to room temperature. LiveBLAZER™-FRET B/G Loading Kit (K1095, thermo Fisher) containing CCF-4AM and solution B, solution C, solution D were also available from Invitrogen (K1157, thermo Fisher).
2) 6× loading solution was prepared: 6 μl of CCF-4AM dissolved solution A, 60 μl of solution b, 904 μl of solution c, and 30 μl of solution D were pipetted into EP tube, blowed and stirred to mix well.
3) 8 μl of the above-mentioned liquid was sucked with a multichannel pipette, added into a 96-well plate, and incubated for 2 hours at room temperature.
4) The PerkinElmer detector was used to detect the luminous signals of each hole. FI mode, λex=409 nm, λem1=460 nm, λem2=530 nm.
4. Data Processing Using Graphpad Prism 5 (GraphPad Software. Inc)
Effective rate %=(Signal−Min)/(Max−Min)×100%.

| EC50 [nM] | SMILES |
| --- | --- |
| 1.7 | CNC(=N)NCCC[C@H](NC(=O)[C@H](CC(C)C)NC(=O)[C@H](CC1CCC1)NC(=O)[C@H](Cc1ccccc1)NC(=O)[C@@H](NC(=O)[C@H](CC(N)=O)NC(=O)[C@@H]1C[C@@H](O)CN1C(=O)[C@@H](Cc1ccc(O)cc1)NC(C)=O)[C@@H](C)O)C(=O)N[C@@H](Cc1c[nH]c2ccccc12)C(N)=O [YA-284, Ac-(D-Tyr)-Hyp-Asn-Thr-Phe-Cba-Leu-Arg(Me)-Trp-NH2] (Ac-[dY][Hyp]NTF[Cba]L[Arg(Me)]W-NH2) |
| 2.2 | CNC(=N)NCCC[C@H](NC(=O)[C@H](CC(C)C)NC(=O)CCNC(=O)[C@H](Cc1ccccc1)NC(=O)[C@@H](NC(=O)[C@H](CC(N)=O)NC(=O)[C@@H]1C[C@@H](O)CN1C(=O)[C@@H](Cc1ccc(O)cc1)NC(C)=O)[C@@H](C)O)C(=O)N[C@@H](Cc1c[nH]c2ccccc12)C(N)=O [YA-337, Ac-(D-Tyr)-Hyp-Asn-Thr-Phe-BetaAla-Leu-Arg(Me)-Trp-NH2] (Ac-[dY][Hyp]NTF[βAla]L[Arg(Me)]W-NH2) |

Test system: not listed separately
Test: Plasma stability, LC-MS/MS
Format: in vitro ADME
Conditions: rat plasma, 37° C., final concentration 500 ng/ml, time points 0 minutes, 1, 2 and 4 hours; calculated half-life; read-out: Rat plasma (T½ (h)) (converted)
Protocol: Effect Embodiment 2 Experimental Data on Plasma Stability of Some Compounds
1. Preparation of 50 mM Phosphate Buffer:
The 5.750 g Na2HPO4, 1.141 g NaH2PO4. and 4.095 g NaCl (Shanghai Titan) weighed was dissolved in 1000 mL ultrapure water and the pH was adjusted to 7.4 to give 50 mM phosphate buffer containing 70 mM NaCl. The prepared phosphoric acid buffer solution was stored in the refrigerator at 4° C. and was valid for one week.
2. Preparation of compound stock solution:
1). 5 mg/mL of test compound: 5 mg of compound was weighted and dissolved in 1 mL of DMSO.
2). 20 mM control: 2.728 mg of Fuka was dissolved in 0.5 mL of DMSO. 3.878 mg of benzalkonium bromide was dissolved in 0.5 mL of DMSO (Amresco).
3. Preparation of experimental plasma:
The frozen plasma (human: Shanghai wise chemistry; Rats and mice: Shanghai Sciple-Bikai; Dogs and monkeys: Suzhou Xishan Zhongke) were taken out of the −80° C. refrigerator, immediately placed in a 37° C. water bath, slightly shaken to melt it, then the thawed plasma was poured into a centrifuge tube, centrifuged at 3000 rpm for 8 min, and the supernatant was taken for experiments. The pH value of plasma was detected by a pH Meter & Sensor (METTLER TOLEDO). Only plasma with a pH value between 7.4 and 8 was used in the experiment. The plasma was placed on an ice bath for later use.
4. Preparation of administration solution:
1). 125 µg/ml test compound solution: 5 μL of 5 mg/mL test compound (see step 2) was added into 195 μL DMSO; 500 μM control solution: 20 mM control stock solution (see step 2) was added to 195 μL DMSO.
2). 0.5% BSA phosphate buffer solution: 0.05 g BSA was added to 10 mL phosphate buffer solution (see step 1);
3). 5 µg/ml of test compound administration solution: 40 μL of 125 μg/mL of test compound solution was added into 960 μL 0.5% BSA phosphate buffer solution, stirred and mixed evenly, and the administration solution was preheated in a 37° C. water bath for 5 minutes.
20 μM reference substance administration solution: 40 μL of 500 μM reference substance administration solution was added into 960 μL 0.5% BSA phosphate buffer solution, stirred and mixed evenly, and the administration solution was preheated in a 37° C. water bath for 5 minutes.
5. 10 μL of 5 μg/mL of the test compound and 20 μM of the control substance administration solution were respectively added to the wells set at different time points (0 minutes, 1 hour, 2 hours and 4 hours) on the 96-well plate, and the number of duplicate samples was 3.
6. 500 μL of ACN (IS) containing 5% FA was added to the well set at 0 minute hour, then 90 μL of plasma was added, after mixing, sealing film was pasted and placed at 4° C. (number of duplicate samples was 3).
7. 90 μL of plasma was added to the wells with set time points of 1 hour, 2 hours and 4 hours respectively, the number of duplicate samples was 3, and timing was started (the final concentration of the test compound was 500 ng/ml; The control was 2 μM).
9. All samples (0 minutes, 1 hour, 2 hours and 4 hours) at different time points on a 96-well plate were shaken for 10 minutes at 600 rpm/min on an oscillator (MTS 2/4, IKA), and then the samples were centrifuged for 15 minutes at 5594×g in a centrifuge (Multifuge×3R, thermo Fisher).
10. 150 μL of supernatant was taken from the centrifuged sample and sent to LC-MS/MS for analysis (conventional polypeptide LC-MS/MS analysis method).

| SMILES | half-life at 500 ng/ml [h] |
| --- | --- |
| CNC(=N)NCCC[C@H](NC(=O)[C@H](CC(C)C)NC(=O)NNC(=O)[C@H](Cc1ccccc1)NC(=O)[C@@H](NC(=O)[C@H](CC(N)=O)NC(=O)C1(NC(=O)[C@@H](Cc2ccc(O)cc2)NC(C)=O)CCCCC1)[C@@H](C)O)C(=O)N[C@@H](Cc1c[nH]c2ccccc12)C(N)=O [YA-172, Ac-D-Tyr-A6c-Asn-Thr-Phe-azaGly-Leu-Arg(Me)-Trp-NH2] (Ac-[dY][Ac6c]NTF[azaGly]L[Arg(Me)]W-NH2) | 9.42 |
| CCCCCCCCCCCC(=O)NCCOCCOCCOCCOCCOCCn1cc(CC(=O)N[C@H](Cc2ccc(O)cc2)C(=O)N2C[C@H](O)C[C@H]2C(=O)N[C@@H](CC(N)=O)C(=O)N[C@H](C(=O)N[C@@H](Cc2ccccc2)C(=O)NNC(=O)N[C@@H](CC(C)C)C(=O)N[C@@H](CCCNC(=N)NC)C(=O)N[C@@H](Cc2c[nH]c3ccccc23)C(N)=O)[C@@H](C)O)nn1 [YA-326, Dodecanoyl-NH-PEG5-1,2,3-Triazole-Cyclic-Butanoyl-(D-Tyr)-Hyp-Asn-Thr-Phe-Azag-Leu-Arg(Me)-Trp-NH2] (X2-[dY][Hyp]NTF[azaGly]L[Arg(Me)]W-NH2) | 4.97 |
| CCCCCCCCCCCC(=O)NCCOCCOCCOCCOCCOCCSC1CC(=O)N(CCCC(=O)N[C@H](Cc2ccc(O)cc2)C(=O)N2C[C@H](O)C[C@H]2C(=O)N[C@@H](CC(N)=O)C(=O)N[C@H](C(=O)N[C@@H](Cc2ccccc2)C(=O)NNC(=O)N[C@@H](CC(C)C)C(=O)N[C@@H](CCCNC(=N)NC)C(=O)N[C@@H](Cc2c[nH]c3ccccc23)C(N)=O)[C@@H](C)O)C1=O (stereo partly drawn) [YA-325, Dodecanoy-(NH-PEG5-CH2CH2S)-(maleimide-butanoyl-)-(D-Tyr)-Hyp-Asn-Thr-Phe-azaG-Leu-Arg(Me)-Trp-NH2] (X1-[dY][Hyp]NTF[azaGly]L[Arg(Me)]W-NH2) | 4.26 |

Second part, the compound after the results:

| half-life at 500 ng/ml [h] | SMILES |
| --- | --- |
| 0.22 | C=CC[C@H](NC(=O)[C@H](Cc1ccccc1)NC(=O)[C@@H](NC(=O)[C@H](CC(N)=O)NC(=O)[C@@H]1C[C@@H](O)CN1C(=O)[C@@H](Cc1ccc(O)cc1)NC(C)=O)[C@@H](C)O)C(=O)N[C@@H](CC(C)C)C(=O)N[C@@H](CCCNC(=N)NC)C(=O)N[C@@H](Cc1c[nH]c2ccccc12)C(N)=O [YA-350, Ac-(D-Tyr)-Hyp-Asn-Thr-Phe-Alg-Leu-Arg(Me)-Trp-NH2] (Ac-[dY][Hyp]NTF[AllylGly]L[Arg(Me)]W-NH2) |
| 9.63 | CNC(=N)NCCC[C@H](NC(=O)[C@H](CC(C)C)NC(=O)NNC(=O)[C@H](Cc1ccccc1)NC(=O)[C@@H](NC(=O)[C@H](CC(N)=O)NC(=O)[C@@H]1CC(F)(F)CN1C(=O)[C@@H](Cc1ccc(Cl)cc1Cl)NC(C)=O)[C@@H](C)O)C(=O)N[C@@H](Cc1c[nH]c2ccccc12)C(N)=O [YA-180, Ac-[D-Phe(2,4-DiCl)]-Pro(diF)-Asn-Thr-Phe-azaGly-Leu-Arg(Me)-Trp-NH2] (Ac-[dPhe(2,4-Cl2)][Pro(4,4-F2)]NTF[azaGly]L[Arg(Me)]W-NH2) |
